Measurements reported in patent US20050038047A1, “Azaquinazoline derivatives” (priority 2003, published 2005).

Target: T1, rat mGluR1a receptor (Rattus norvegicus, UniProt P23385)
T1 construct: expressed in transfected cells; host or cells: Chinese Hamster Ovary cells (CHO-1a), stably transfected
Test: mGluR1 assay: antagonism of glutamate-evoked calcium internalisation in CHO-1a cells (FLIPr)
Assay type: cell-based
Conditions: CHO cells stably transfected with rat mGluR1a; 40 μM glutamate challenge; IC50 values converted to modified Ki values; read-out: binding affinities (mGluR1 assay)
Experimental: The ability of compounds of formula (I) to antagonise glutamate-evoked increases in calcium internalisation in an mGluR1 expressing cell line may be measured using the assay described below.
Chinese Hamster Ovary cells stably-transfected with the rat mGluR1a receptor (CHO-1a) were used in the assay. CHO-1a cells were seeded onto shallow 96 well plates and assayed at a confluency of 80-90%. Cells were loaded with Fluo-3-AM dye (8.8 μM final concentration; excitation 488 nm, emission 530 nm) in the presence of probenecid (2.5 mM), for 45-90 minutes at 37° C., after which time excess dye was removed by washing. The cell plate was then loaded onto a fluorometric imaging plate reader (FLIPr, Molecular Devices). Baseline readings were measured for 30 seconds. Test compounds were added by the FLIPr and allowed to equilibrate for 5 minutes before the addition of a 40 μM glutamate challenge (this was the approximate ED90 for glutamate against the receptor expressed in these cells). Readings were taken for a further 2 minutes. Measurements were made of the area of peak obtained in response to the glutamate addition and inhibition curves were constructed. Glutamate dose-response curves were included on each experimental day to allow IC50 values to be converted to modified Ki values.

T1 sequence (P23385 19-1199): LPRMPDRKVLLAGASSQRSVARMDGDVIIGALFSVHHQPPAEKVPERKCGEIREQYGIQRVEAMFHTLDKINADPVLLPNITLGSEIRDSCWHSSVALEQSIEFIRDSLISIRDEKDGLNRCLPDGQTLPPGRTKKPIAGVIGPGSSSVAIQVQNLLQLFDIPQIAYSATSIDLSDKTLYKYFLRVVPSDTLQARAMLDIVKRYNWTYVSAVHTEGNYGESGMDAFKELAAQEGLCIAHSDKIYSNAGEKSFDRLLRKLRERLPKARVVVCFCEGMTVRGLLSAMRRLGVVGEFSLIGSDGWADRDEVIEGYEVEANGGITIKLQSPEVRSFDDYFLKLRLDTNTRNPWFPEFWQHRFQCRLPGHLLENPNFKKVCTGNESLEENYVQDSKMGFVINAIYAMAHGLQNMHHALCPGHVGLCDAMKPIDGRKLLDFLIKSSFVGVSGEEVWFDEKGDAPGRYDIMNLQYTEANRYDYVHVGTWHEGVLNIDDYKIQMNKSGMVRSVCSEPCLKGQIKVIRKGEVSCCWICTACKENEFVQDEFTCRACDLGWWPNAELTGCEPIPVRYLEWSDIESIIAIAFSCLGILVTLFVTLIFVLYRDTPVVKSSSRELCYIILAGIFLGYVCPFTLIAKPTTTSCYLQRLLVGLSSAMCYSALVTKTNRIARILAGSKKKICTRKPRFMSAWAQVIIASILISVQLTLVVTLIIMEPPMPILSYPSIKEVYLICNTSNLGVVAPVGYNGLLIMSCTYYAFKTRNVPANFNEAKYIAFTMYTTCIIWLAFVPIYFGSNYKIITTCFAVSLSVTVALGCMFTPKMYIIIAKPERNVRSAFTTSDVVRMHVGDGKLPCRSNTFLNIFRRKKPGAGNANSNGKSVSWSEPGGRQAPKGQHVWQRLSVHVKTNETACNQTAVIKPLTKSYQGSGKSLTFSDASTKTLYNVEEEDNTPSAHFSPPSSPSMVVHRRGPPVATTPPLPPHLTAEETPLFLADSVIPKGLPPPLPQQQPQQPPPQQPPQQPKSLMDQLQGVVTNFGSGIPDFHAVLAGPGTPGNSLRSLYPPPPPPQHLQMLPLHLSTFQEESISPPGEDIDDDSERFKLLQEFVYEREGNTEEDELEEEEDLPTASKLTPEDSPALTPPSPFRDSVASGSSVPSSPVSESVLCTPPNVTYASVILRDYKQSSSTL

SMILES | Ki
OC1CCN(c2cc3c(NC4CCCCCC4)ncnc3cn2)CC1 [Example 1, 1-(4-Cycloheptylamino-pyrido[3,4-d]pyrimidin-6-yl)-piperidin-4-ol] | 3 nM
OCCCNc1cc2c(NC3CCCCCC3)ncnc2cn1 [Example 3] | 2 nM
